Test results taken from patent US8937065B2, “Compositions and methods for modulating a kinase” (Clevexel Pharma, priority 2011, dated 2015).

What was measured:
[1] = test system: Interleukin 4/STAT6-STAT6-bla RA1; experiment: Interleukin 4/STAT6-STAT6-bla RA1 inhibition (IL-4-stimulated STAT6 activity in Ramos cells); type: cell-based; conditions: Homo sapiens; Ramos cells, IL4 stimulated; read-out: IC50 B cells mechanism-based: Ramos cells IL4 stimulated STAT6 activity
Procedure: The inhibition of Interleukin 4/STAT6-STAT6-bla RA1 (activated by IL-4) by several compounds was determined using the Screening Protocol and Assay Conditions (Invitrogen, Madison, Wis.). The assays were performed according to manufacturer's protocols. Example 4, Cell-line Specific Protocols IL-4-stimulated STAT6 activity in Ramos cells for details.
Mechanism-based inhibition assays using compound 7A (Table 1) were performed using GeneBLAzer® Technology (Invitrogen Corporation), according to manufacturer specifications. […] In this state, excitation of the coumarin results in fluorescence resonance energy transfer to the fluorescein moiety and emission of green light. […] Excitation of the coumarin in the presence of Beta-lactamase activity results in a blue fluorescence signal. […]
An activator assay screen was run to obtain the EC80 concentration of the known activator to add in step 3. • 1. […] 4 μL of the EC80 concentration of activator, as determined in an Activator assay, was added to all wells containing compound and known inhibitor to bring the final assay volume to 40 μL. • 4. […] The assay plate was read on a fluorescence plate reader (Tecan Safire) and the data is analyzed. […]
STAT6-bla RA1 cells were thawed. […] The plate was read on a fluorescence plate reader.

[2] = biological target: T1, JAK3 (Homo sapiens, UniProt P52333); experiment: JAK3 enzymatic activity assay (Z'-LYTE Biochemical Kinase Assay, 2 hr preincubation at 4° C.); conditions: cell free, 1% DMSO, read-out: JAK3 activity cell free (2 hr preincubation at (4° C.) Kj)
T1 construct: purchased Invitrogen, Madison, Wis
T1 sequence (P52333 1-1124): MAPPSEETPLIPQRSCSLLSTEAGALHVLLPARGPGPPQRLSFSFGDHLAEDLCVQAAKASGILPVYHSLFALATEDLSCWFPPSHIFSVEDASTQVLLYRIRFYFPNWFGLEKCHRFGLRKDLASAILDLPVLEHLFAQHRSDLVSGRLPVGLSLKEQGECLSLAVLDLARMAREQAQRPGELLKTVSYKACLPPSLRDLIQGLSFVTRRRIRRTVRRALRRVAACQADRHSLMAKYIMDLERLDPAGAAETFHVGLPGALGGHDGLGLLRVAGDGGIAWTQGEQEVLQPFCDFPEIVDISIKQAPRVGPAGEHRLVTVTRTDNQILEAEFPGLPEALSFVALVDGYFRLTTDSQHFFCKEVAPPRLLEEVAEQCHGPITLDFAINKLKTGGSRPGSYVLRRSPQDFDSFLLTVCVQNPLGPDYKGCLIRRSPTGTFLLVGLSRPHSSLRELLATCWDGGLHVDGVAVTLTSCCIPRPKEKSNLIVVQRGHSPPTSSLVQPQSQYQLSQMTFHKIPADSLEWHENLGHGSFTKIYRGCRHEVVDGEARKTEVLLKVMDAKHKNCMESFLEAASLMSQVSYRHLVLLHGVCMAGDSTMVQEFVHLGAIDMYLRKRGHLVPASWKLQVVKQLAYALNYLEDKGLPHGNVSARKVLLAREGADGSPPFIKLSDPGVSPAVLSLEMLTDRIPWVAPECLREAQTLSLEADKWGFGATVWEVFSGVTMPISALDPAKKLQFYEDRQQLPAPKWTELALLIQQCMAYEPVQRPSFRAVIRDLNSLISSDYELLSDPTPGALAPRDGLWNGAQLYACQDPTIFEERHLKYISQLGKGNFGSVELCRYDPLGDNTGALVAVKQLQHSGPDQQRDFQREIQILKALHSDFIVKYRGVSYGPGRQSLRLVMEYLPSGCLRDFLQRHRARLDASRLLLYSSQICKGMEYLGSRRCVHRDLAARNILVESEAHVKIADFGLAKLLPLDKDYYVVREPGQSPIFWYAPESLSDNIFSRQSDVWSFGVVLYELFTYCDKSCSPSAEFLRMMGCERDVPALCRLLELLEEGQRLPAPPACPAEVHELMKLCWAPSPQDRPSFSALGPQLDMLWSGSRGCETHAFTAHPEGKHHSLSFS
Procedure: The assays were performed according to manufacturer's protocols, except that prior to the kinase reaction they were pre-incubated for 2 hours at 4° C., in order to be able to assay for time-dependent inhibition.
In addition to the compound, each 10 μL JAK3 kinase reaction contained 0.43-1.89 ng JAK3 and 2 μM peptide substrate in 50 mM HEPES (pH 7.5), 0.01% BRIJ-35, 10 mM MgCl2 and 1 mM EGTA. The kinase reaction was allowed to proceed for 1 hour.

## O=C(CN1CCOCC1)Nc1cccc(-c2nc(-c3c[nH]c(C(=O)N4CCCC4)c3)cs2)c1 [7A, 2-morpholino-N-(3-(4-(5-(pyrrolidine-1-carbonyl)-1H-pyrrol-3-yl)thiazol-2-yl)phenyl)acetamide]
[1]
  IC50: 32 nM
[2]
  Ki: 1100 to 10000 nM
